Data published in ChEMBL document CHEMBL4813952, “Axial Chiral Binaphthoquinone and Perylenequinones from the Stromata of Hypocrella bambusae Are SARS-CoV-2 Entry Inhibitors” (J Nat Prod, 2021).
Activity calls are given as the source filed them. The rule behind the calls is not given here.

Test system: Vesicular stomatitis virus
Experiment: Antiviral activity against pseudotype VSV harbouring glycoprotein infected in human 293T/ACE2 cells assessed as inhibition of viral infection measured after 48 hrs by luciferase reporter gene assay
Type: functional, organism-based

COC1=C(CC(C)=O)C(=O)c2c(c(O)cc(OC)c2-c2c(OC)cc(O)c3c2C(=O)C(CC(C)=O)=C(OC)C3=O)C1=O
Activity: inactive

COc1c2c3c4c(c(OC)c(=O)c5c(O)cc(OC)c(c6c(OC)cc(O)c(c1=O)c63)c54)[C@@H](C(C)=O)[C@@](C)(O)C2 [HYPOCRELLIN A]
Activity: inactive

COc1c(O)c2c(=O)cc(OC)c3c4c(OC)cc(=O)c5c(O)c(OC)c6c(c(c1C[C@](C)(O)[C@H]6C(C)=O)c23)c54
Activity: inactive
